Source: the Kinase Knowledgebase extract (Sharma et al. 2016)
pIC50: −log10 of the molar value.

Molecular target: PIK3CB;PIK3CG;PIK3CD;PIK3CA (human) (UniProt P48736)
Test: Enzyme Assay

| pIC50 | Structure (SMILES) |
| --- | --- |
| 6.81 | O=C(c1nn(C2CCN(CCN3CC(F)(F)C3)C2)c2c1CS(=O)(=O)c1ccccc1-2)N1CCOCC1 (centres undefined) |
| 6.45 | O=C(c1nn(C2CCN(CC3CCOC3)C2)c2c1CS(=O)(=O)c1ccccc1-2)N1CCOCC1 (centres undefined) |
| 6.22 | CCn1nc(C(=O)N2CCOCC2)c2c1-c1ccccc1S(=O)(=O)C2 |
| 7.47 | COCCNCCN1CCC[C@H](n2nc(C(=O)N3CCOCC3)c3c2-c2ccccc2S(=O)(=O)C3)C1 |
| 6.27 | O=C(c1nn(CC2CCNCC2)c2c1CS(=O)(=O)c1ccccc1-2)N1CCOCC1 |
| 6.63 | O=C(c1nn(C2CN(CCN3CCOCC3)C2)c2c1CS(=O)(=O)c1ccccc1-2)N1CCOCC1 |
| 6.10 | O=C(c1nn(CC2CCOCC2)c2c1CS(=O)(=O)c1ccccc1-2)N1CCOCC1 |
| 7.60 | O=C(c1nn([C@H]2CCCN(CC3CCOCC3)C2)c2c1CS(=O)(=O)c1ccccc1-2)N1CCOCC1 |
| 6.77 | O=C(c1nn(C2CCCN(CCn3cccn3)C2)c2c1CS(=O)(=O)c1ccccc1-2)N1CCOCC1 (centres undefined) |
| 6.06 | CC(=O)OCCN1CCC(n2nc(C(=O)N3CCOCC3)c3c2-c2ccccc2S(=O)(=O)C3)C1 (centres undefined) |
| 7.85 | O=C(c1nn([C@H]2CCCN(CCN3CC[C@H](F)C3)C2)c2c1CS(=O)(=O)c1ccccc1-2)N1CCOCC1 |
| 6.45 | O=C(c1nn(C2CCOC2)c2c1CS(=O)(=O)c1c(F)cccc1-2)N1CCOCC1 (centres undefined) |
| 5.72 | COCCN1CCC(n2nc(C(=O)N3CCOCC3)c3c2-c2ccccc2S(=O)(=O)C3)CC1 |
| 6.00 | CS(=O)(=O)N1CCCC(n2nc(C(=O)N3CCOCC3)c3c2-c2ccccc2S(=O)(=O)C3)C1 (centres undefined) |
| 5.45 | COCCN1CCC[C@@H](n2nc(C(=O)N3CCOCC3)c3c2-c2ccccc2S(=O)(=O)C3)C1 |
| 6.65 | O=C(c1nn(C2CCOCC2)c2c1CS(=O)(=O)c1ccccc1-2)N1CCOCC1 |
| 6.49 | O=C(c1nn(C2CCCOC2)c2c1CS(=O)(=O)c1ccccc1-2)N1CCOCC1 (centres undefined) |
| 6.92 | O=C(c1nn(C2CCN(CCN3CC[C@@H](F)C3)C2)c2c1CS(=O)(=O)c1ccccc1-2)N1CCOCC1 (some centres undefined) |
| 6.31 | CC(C)(C)OC(=O)N1CCC(Cn2nc(C(=O)N3CCOCC3)c3c2-c2ccccc2S(=O)(=O)C3)CC1 |
| 5.81 | O=C(c1nn(CC2CCCO2)c2c1CS(=O)(=O)c1ccccc1-2)N1CCOCC1 (centres undefined) |
| 7.89 | COC1CCN(CCN2CCC[C@H](n3nc(C(=O)N4CCOCC4)c4c3-c3ccc(F)cc3S(=O)(=O)C4)C2)CC1 |
| 7.68 | O=C(c1nn(C2CCCN(CC3CCOC3)C2)c2c1CS(=O)(=O)c1c(F)cccc1-2)N1CCOCC1 (centres undefined) |

The remaining lines, values behind:

| Structure (SMILES) | pIC50 |
| --- | --- |
| CC(C)(CN1CCOCC1)c1ccc(-n2nc(C(=O)N3CCOCC3)c3c2-c2ccccc2S(=O)(=O)C3)cc1 | 6.47 |
| COc1ccc(C(=O)Cn2nc(C(=O)N3CCOCC3)c3c2-c2ccccc2S(=O)(=O)C3)cc1 | 4.84 |
| O=C(c1nn(-c2ccccc2)c2c1CS(=O)(=O)c1c(F)cccc1-2)N1CCOCC1 | 6.37 |
| CCc1nc(-c2cccc(-n3nc(C(=O)N4CCOCC4)c4c3-c3ccccc3S(=O)(=O)C4)c2)no1 | 5.59 |
| O=C(c1nn(-c2ccccn2)c2c1CS(=O)(=O)c1ccccc1-2)N1CCOCC1 | 5.80 |
| O=C(c1nc(-c2ccccc2)n2c1CS(=O)(=O)c1ccccc1-2)N1CCOCC1 | 5.56 |
| O=C(c1nn(-c2cccc(N3CCCC3)c2)c2c1CS(=O)(=O)c1ccccc1-2)N1CCOCC1 | 5.31 |
| O=C(c1nn(-c2ccccc2)c2c1CS(=O)(=O)c1ccc(F)cc1-2)N1CCOCC1 | 6.01 |
| Cn1nc(C(=O)N2CCOCC2)c2c1-c1ccccc1S(=O)(=O)C2Cc1ccccc1 (centres undefined) | 5.28 |
| O=C(c1nn(-c2ccc3c(c2)OCCO3)c2c1CS(=O)(=O)c1ccccc1-2)N1CCOCC1 | 6.17 |
| COCCCC1c2c(C(=O)N3CCOCC3)nn(-c3ccccc3)c2-c2ccccc2S1(=O)=O (centres undefined) | 5.29 |
| CS(=O)(=O)c1cccc(-n2nc(C(=O)N3CCOCC3)c3c2-c2ccccc2S(=O)(=O)C3)c1 | 5.59 |
| O=C(c1nn(-c2ccc(CO)cc2)c2c1CS(=O)(=O)c1ccccc1-2)N1CCOCC1 | 5.97 |
| O=C(c1nn(-c2cccc(-c3cnn(CCN4CCOCC4)c3)c2)c2c1CS(=O)(=O)c1ccccc1-2)N1CCOCC1 | 6.47 |
| CC(C)CCOC1CCN(Cc2cccc(-n3nc(C(=O)N4CCOCC4)c4c3-c3ccccc3S(=O)(=O)C4)c2)C1 (centres undefined) | 6.41 |
| O=C(c1cccc(-n2nc(C(=O)N3CCOCC3)c3c2-c2ccccc2S(=O)(=O)C3)c1)N1CCCC(CO)C1 (centres undefined) | 6.30 |
| Nc1ccc2c(c1)S(=O)(=O)Cc1c(C(=O)N3CCOCC3)nn(-c3ccccc3)c1-2 | 5.95 |
| Cn1cc(-n2nc(C(=O)N3CCOCC3)c3c2-c2ccccc2S(=O)(=O)C3)ccc1=O | 5.53 |
| O=C(c1nn(Cc2ccccc2)c2c1CS(=O)(=O)c1ccccc1-2)N1CCOCC1 | 5.92 |
| O=C(c1nn([C@H]2CCCN(C3CCOCC3)C2)c2c1CS(=O)(=O)c1c(F)cccc1-2)N1CCOCC1 | 7.89 |
| O=C(c1nn([C@@H]2CCCN(C3CCCOC3)C2)c2c1CS(=O)(=O)c1ncccc1-2)N1CCOCC1 (some centres undefined) | 5.53 |
| CN(C)S(=O)(=O)c1cccc(-n2nc(C(=O)N3CCOCC3)c3c2-c2ccccc2S(=O)(=O)C3)c1 | 6.19 |
